# From PubChem BioAssay AID330 (DTP/NCI, 2004)
# Values joined by “and” are separate entries in the source; they are usually repeats but may differ in a detail not shown here. Identical values can stand only once. Inconclusive results and toxic doses are left out.
# System: P388 leukemia ip, CD2F1 mice, survival T/C
# Test: NCI In Vivo Anticancer Drug Screen. Data for tumor model P388 Leukemia (intraperitoneal) in CD2F1 (CDF1) mice
# Conditions: endpoint: median survival time, higher = longer survival
# Summary of the method: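 Mice carrying the transplanted tumor received test compound or vehicle. Survival was recorded in each group, and the value is the treated-group measurement divided by that of the vehicle-treated control group.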
# [1] = dose: 50.0 mg/kg/injection, schedule: Q01DX009 (ip), vehicle: Klucel (hydroxypropylcellulose) (HPC)
# [2] = dose: 100.0 mg/kg/injection, schedule: Q01DX009 (ip), vehicle: Klucel (hydroxypropylcellulose) (HPC)
# [3] = dose: 200.0 mg/kg/injection, schedule: Q01DX009 (ip), vehicle: Klucel (hydroxypropylcellulose) (HPC)
# [4] = dose: 50.0 mg/kg/injection, schedule: Q01DX005 (ip), vehicle: saline
# [5] = dose: 100.0 mg/kg/injection, schedule: Q01DX005 (ip), vehicle: saline
# [6] = dose: 200.0 mg/kg/injection, schedule: Q01DX005 (ip), vehicle: saline
# [7] = dose: 60.0 mg/kg/injection, schedule: Q01DX005 (ip), vehicle: saline with Tween-80
# [8] = dose: 120.0 mg/kg/injection, schedule: Q01DX005 (ip), vehicle: saline with Tween-80
# [9] = dose: 240.0 mg/kg/injection, schedule: Q01DX005 (ip), vehicle: saline with Tween-80
# [10] = dose: 50.0 mg/kg/injection, schedule: Q01DX009 (ip), vehicle: saline
# [11] = dose: 100.0 mg/kg/injection, schedule: Q01DX009 (ip), vehicle: saline
# [12] = dose: 200.0 mg/kg/injection, schedule: Q01DX009 (ip), vehicle: saline
# [13] = dose: 25.0 mg/kg/injection, schedule: Q01DX005 (ip), vehicle: saline with Tween-80
# [14] = dose: 50.0 mg/kg/injection, schedule: Q01DX005 (ip), vehicle: saline with Tween-80
# [15] = dose: 100.0 mg/kg/injection, schedule: Q01DX005 (ip), vehicle: saline with Tween-80
smiles,measurement,setting,value
Clc1cccc(N=Cc2ccc(C=Nc3cccc(Cl)c3Cl)cc2)c1Cl,T/C,[1],94 % of control
same,T/C,[2],91 % of control
same,T/C,[3],90 % of control
Cn1c(=O)c2[nH]c(C3CCCC3)nc2n(C)c1=O,T/C,"dose: 3.13 mg/kg/injection, schedule: Q01DX009 (ip), vehicle: saline with Tween-80",94 % of control
same,T/C,"dose: 6.25 mg/kg/injection, schedule: Q01DX009 (ip), vehicle: saline with Tween-80",103 % of control
same,T/C,"dose: 12.5 mg/kg/injection, schedule: Q01DX009 (ip), vehicle: saline with Tween-80",103 % of control
same,T/C,"dose: 25.0 mg/kg/injection, schedule: Q01DX009 (ip), vehicle: saline with Tween-80",92 % of control
COC(=O)C(=O)C(C(=O)c1ccncc1)c1nc2n(c1O)C(=N)N=N2 (configuration not stated),T/C,[4],97 % of control
same,T/C,[5],97 % of control
same,T/C,[6],100 % of control
NC(=O)N/N=C1/CC(=O)N(c2ccccc2)C1c1ccccc1 (configuration not stated),T/C,[7],93 % of control
same,T/C,[8],91 % of control
same,T/C,[9],92 % of control
CSCCC(C(=O)O)N(CCC#N)CCC#N (configuration not stated),T/C,[4],98 % of control
same,T/C,[5],102 % of control
same,T/C,[6],100 % of control
O=C(Nc1ccc(C2=NCCN2)cc1)c1cc(Cl)cc(C(=O)Nc2ccc(C3=NCCN3)cc2)c1,T/C,"dose: 140.0 mg/kg/injection, schedule: Q01DX010 (ip), vehicle: saline",95 % of control
same,T/C,"dose: 210.0 mg/kg/injection, schedule: Q01DX010 (ip), vehicle: saline",90 % of control
same,T/C,"dose: 315.0 mg/kg/injection, schedule: Q01DX010 (ip), vehicle: saline",100 % of control
same,T/C,"dose: 473.0 mg/kg/injection, schedule: Q01DX010 (ip), vehicle: saline",100 % of control
CC(=O)Nc1ccc(N)cc1C,T/C,"dose: 100.0 mg/kg/injection, schedule: Q04DX002 (ip), vehicle: saline",96 % of control
same,T/C,"dose: 200.0 mg/kg/injection, schedule: Q04DX002 (ip), vehicle: saline",97 % of control
same,T/C,"dose: 400.0 mg/kg/injection, schedule: Q04DX002 (ip), vehicle: saline",97 % of control
Nc1c(Cl)c(Cl)c(Br)c(Cl)c1Cl,T/C,"dose: 50.0 mg/kg/injection, schedule: Q01DX009 (ip), vehicle: saline with Tween-80",92 % of control
same,T/C,"dose: 100.0 mg/kg/injection, schedule: Q01DX009 (ip), vehicle: saline with Tween-80",90 % of control
Cc1ccc(S(=O)(=O)N2CCN(S(=O)(=O)c3ccc(C)cc3)COC2)cc1,T/C,[7],102 % of control
same,T/C,[8],97 % of control
same,T/C,[9],104 % of control
CC(C)OP(=S)(OC(C)C)SC(C)C,T/C,[10],104 % of control
same,T/C,[11],119 % of control
same,T/C,[12],116 % of control
COc1cccc2c1C(=O)c1c(O)c3c(c(O)c1C2=O)C[C@@](O)(C(=O)CO)C[C@@H]3OC1CC(N2CCOCC2C#N)C(O)C(C)O1 (some centres not stated),T/C,"dose: 9.38 micrograms/kg/injection, schedule: Q04DX003 (ip), vehicle: saline with Tween-80",191 % of control and 198 % of control
same,T/C,"dose: 9.38 micrograms/kg/injection, schedule: Q04DX003 (ip), vehicle: water",105 % of control
same,T/C,"dose: 15.0 micrograms/kg/injection, schedule: Q04DX003 (iv), vehicle: saline + alcohol",180 % of control
same,T/C,"dose: 18.75 micrograms/kg/injection, schedule: Q04DX003 (ip), vehicle: saline with Tween-80",252 % of control and 260 % of control
same,T/C,"dose: 18.75 micrograms/kg/injection, schedule: Q04DX003 (ip), vehicle: water",107 % of control
same,T/C,"dose: 22.0 micrograms/kg/injection, schedule: Q04DX003 (iv), vehicle: saline + alcohol",180 % of control
same,T/C,"dose: 37.5 micrograms/kg/injection, schedule: Q04DX003 (ip), vehicle: saline with Tween-80",110 % of control
same,T/C,"dose: 75.0 micrograms/kg/injection, schedule: Q04DX003 (ip), vehicle: water",178 % of control and 196 % of control
same,T/C,"dose: 150.0 micrograms/kg/injection, schedule: Q04DX003 (ip), vehicle: water",111 % of control
same,T/C,"dose: 300.0 micrograms/kg/injection, schedule: Q04DX003 (ip), vehicle: water",89 % of control
C=CC1C(OC2OC(CO)C(O)C(O)C2O)OC=C(C(=O)OC)C1CC1CC(=O)CC(CCc2ccc(O)cc2)O1 (configuration not stated),T/C,"dose: 8.0 mg/kg/injection, schedule: Q01DX005 (ip), vehicle: distilled water + Tween-80",96 % of control
same,T/C,"dose: 16.0 mg/kg/injection, schedule: Q01DX005 (ip), vehicle: distilled water + Tween-80",99 % of control
same,T/C,"dose: 25.0 mg/kg/injection, schedule: Q01DX005 (ip), vehicle: water",100 % of control
same,T/C,"dose: 32.0 mg/kg/injection, schedule: Q01DX005 (ip), vehicle: distilled water + Tween-80",91 % of control
same,T/C,"dose: 50.0 mg/kg/injection, schedule: Q01DX005 (ip), vehicle: water",99 % of control
same,T/C,"dose: 64.0 mg/kg/injection, schedule: Q01DX005 (ip), vehicle: distilled water + Tween-80",90 % of control
same,T/C,"dose: 100.0 mg/kg/injection, schedule: Q01DX005 (ip), vehicle: water",96 % of control
same,T/C,"dose: 200.0 mg/kg/injection, schedule: Q01DX005 (ip), vehicle: water",99 % of control
CC(=O)C1=C(C)O/C(=C/c2cccc(Cl)c2)C1=O,T/C,"dose: 12.5 mg/kg/injection, schedule: Q01DX005 (ip), vehicle: saline with Tween-80",107 % of control
same,T/C,[13],118 % of control
same,T/C,[14],120 % of control and 121 % of control
same,T/C,[15],118 % of control
same,T/C,"dose: 200.0 mg/kg/injection, schedule: Q01DX005 (ip), vehicle: saline with Tween-80",119 % of control
Nc1ccc2c(-c3ccccc3)cc(=O)[nH]c2c1,T/C,"dose: 50.0 mg/kg/injection, schedule: Q01DX005 (ip), vehicle: Klucel (hydroxypropylcellulose) (HPC)",95 % of control
same,T/C,"dose: 100.0 mg/kg/injection, schedule: Q01DX005 (ip), vehicle: Klucel (hydroxypropylcellulose) (HPC)",100 % of control
N#CC(C#N)=Cc1cc2c3c(c1)CCCN3CCC2,T/C,"dose: 100.0 mg/kg/injection, schedule: Q01DX001 (ip), vehicle: saline with Tween-80",100 % of control
same,T/C,"dose: 200.0 mg/kg/injection, schedule: Q01DX001 (ip), vehicle: saline with Tween-80",100 % of control
same,T/C,"dose: 400.0 mg/kg/injection, schedule: Q01DX001 (ip), vehicle: saline with Tween-80",90 % of control
Cc1sc2ccc3ccccc3c2[n+]1C,T/C,"dose: 15.0 mg/kg/injection, schedule: Q01DX005 (ip), vehicle: saline",100 % of control and 106 % of control and 95 % of control
same,T/C,"dose: 30.0 mg/kg/injection, schedule: Q01DX005 (ip), vehicle: saline",104 % of control and 108 % of control and 118 % of control
same,T/C,"dose: 60.0 mg/kg/injection, schedule: Q01DX005 (ip), vehicle: saline",116 % of control
same,T/C,"dose: 120.0 mg/kg/injection, schedule: Q01DX005 (ip), vehicle: saline",91 % of control and 114 % of control
CCCCCCCCOCC(O)CN(CCO)CCO (configuration not stated),T/C,"dose: 12.5 mg/kg/injection, schedule: Q01DX009 (ip), vehicle: saline",107 % of control
same,T/C,"dose: 25.0 mg/kg/injection, schedule: Q01DX009 (ip), vehicle: saline",92 % of control
same,T/C,[10],94 % of control and 97 % of control
C[N+]1(C)[B]C[N+](C)(C)[B-]1,T/C,[1],92 % of control
same,T/C,[2],105 % of control
same,T/C,[3],103 % of control
CSc1nc(NC2OCC(OC(C)=O)C(OC(C)=O)C2OC(C)=O)c(N=CC=Nc2c(NC3OCC(OC(C)=O)C(OC(C)=O)C3OC(C)=O)nc(SC)[nH]c2=O)c(=O)[nH]1 (configuration not stated),T/C,[7],90 % of control
same,T/C,[8],92 % of control
same,T/C,[9],89 % of control
CC(=O)NS(=O)(=O)c1ccc(NC(=O)c2ccco2)cc1,T/C,"dose: 50.0 mg/kg/injection, schedule: Q01DX009 (ip), vehicle: saline + alcohol",98 % of control
same,T/C,"dose: 100.0 mg/kg/injection, schedule: Q01DX009 (ip), vehicle: saline + alcohol",104 % of control
same,T/C,"dose: 200.0 mg/kg/injection, schedule: Q01DX009 (ip), vehicle: saline + alcohol",91 % of control
CNC(=O)c1nn(C)c(=O)[nH]c1=O,T/C,[4],97 % of control
same,T/C,[5],103 % of control
same,T/C,[6],96 % of control
CCN(CC)CCOc1ccc(C(C)=O)cc1,T/C,[13],99 % of control
same,T/C,[14],92 % of control
same,T/C,[15],101 % of control
Cc1ccc2c(c1)sc1nnc(Cl)n12,T/C,[1],100 % of control
same,T/C,[2],94 % of control
same,T/C,[3],88 % of control
CCOC(=O)NCC(C)(c1ccccc1)c1ccccc1,T/C,[10],87 % of control
same,T/C,[11],94 % of control
same,T/C,[12],87 % of control
